Reference: PubChem BioAssay (NCI)
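Cells were grown in 96-well plates and exposed to each compound for 48 hours at five concentrations; endpoints were interpolated linearly between bracketing concentrations, or set to the highest concentration if not reached. The concentration for full growth arrest is given as TGI.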

Columns and labels:
Experiment in all cases: inhibition of tumour cell growth, NCI panel, 48 h
A498 renal = system: A498 renal
A549 NSCLC = system: A549 NSCLC
BT-549 breast = system: BT-549 breast
CCRF-CEM leukemia = system: CCRF-CEM leukemia
COLO 205 colon = system: COLO 205 colon
HCT-15 colon = system: HCT-15 colon
HS 578T breast = system: HS 578T breast
IGROV1 ovarian = system: IGROV1 ovarian
K-562 leukemia = system: K-562 leukemia
KM12 colon = system: KM12 colon
MDA-MB-231 breast = system: MDA-MB-231 breast
NCI-H460 lung = system: NCI-H460 lung
OVCAR-3 ovarian = system: OVCAR-3 ovarian
OVCAR-5 ovarian = system: OVCAR-5 ovarian
RXF 393 renal = system: RXF 393 renal
SF-268 CNS = system: SF-268 CNS
SNB-75 CNS = system: SNB-75 CNS
SR leukemia = system: SR leukemia
T-47D breast = system: T-47D breast
SF-539 CNS = system: SF-539 CNS

SMILES	TGI (A498 renal) [µM]	TGI (A549 NSCLC) [µM]	TGI (BT-549 breast) [µM]	TGI (CCRF-CEM leukemia) [µM]	TGI (COLO 205 colon) [µM]	TGI (HCT-15 colon) [µM]	TGI (HS 578T breast) [µM]	TGI (IGROV1 ovarian) [µM]	TGI (K-562 leukemia) [µM]	TGI (KM12 colon) [µM]	TGI (MDA-MB-231 breast) [µM]	TGI (NCI-H460 lung) [µM]	TGI (OVCAR-3 ovarian) [µM]	TGI (OVCAR-5 ovarian) [µM]	TGI (RXF 393 renal) [µM]	TGI (SF-268 CNS) [µM]	TGI (SNB-75 CNS) [µM]	TGI (SR leukemia) [µM]	TGI (T-47D breast) [µM]	TGI (SF-539 CNS) [µM]
O=C(O)c1[nH]c(=O)[nH]c(=O)c1CN1CCCCC1	> 100	> 100	> 100	> 100	> 100	> 100	> 100	> 100	> 100	> 100	> 100	> 100	> 100	> 100	> 100	> 100	> 100	> 100	> 100	
C=C1CC(COc2ccc3c(C)c(Cl)c(=O)oc3c2)(c2ccccc2)OC1=O (stereo not given)	25.7	27.9	2.87		1.83	5.13	17.5	3.89		6.69	14.4	23.5	6.71	25.9		19	11.7	> 21.5	4.15	7.34
CC1OC1P(=O)(O)O (stereo not given)	> 100	> 100	> 100	> 100	> 100	> 100	> 100	> 100	> 100	> 100	> 100	> 100	> 100	> 100	> 100	> 100	> 100	> 100	> 100	
C[C@]12CCC(=O)C=C1CC[C@@H]1[C@@H]2CC[C@]2(C)C(=O)/C(=C/c3ccncc3)C[C@@H]12		46.5	42.5	> 100	27.4	48.8	> 100	61.9	> 100	38.3	31.1	29.7	27.1	34.2	31.4	45	45.1	27.1	66	46.1
O=C1CC2(CCN(CC3COc4ccccc4O3)CC2)C(=O)N1N1CCCCCC1 (stereo not given)	> 100	> 100	> 100	> 100	> 100	> 100	> 100	> 100	> 100		> 100		> 100	> 100	> 100	> 100	> 100	> 100	> 100	> 100
CCCCCCCCCCCCCCCCOP(=O)(O)OP(=O)(O)OCC1OC(n2cnc3c(N)ncnc32)C(O)C1O (stereo not given)	> 100	> 100	36.9	86.6	> 100	> 100	> 100	> 100	> 100	> 100	> 100	> 100	> 100	47.4	> 100	> 100	61.8	78.3	> 100	
CC(=O)OC(=C(C#N)C#N)c1nccnc1C(=O)O	> 100	> 100	> 100		> 100	> 100	> 100	> 100	> 100	> 100	> 100	> 100	> 100	> 100	> 100	> 100	> 100	> 100	> 100	> 100
COc1ccc(OC)c2sc(N3C(=O)/C(=C/c4ccc(SC)cc4)N=C3c3ccccc3)nc12	> 100	53.9	88	22.2	> 100	> 100	60.8	> 100	> 100	52.5	> 100	> 100	53.6	> 100		88.1	43.6	60.6	87	58.7
CC(SC(=S)N(C)C)C(=O)Nc1nnc(-c2ccc(Cl)cc2)o1 (stereo not given)	> 100	> 100	> 100		> 100	> 100	> 100	> 100	> 100		> 100	> 100	> 100	> 100	> 100	> 100	> 100	19.9	> 100	> 100
CSc1ccc(/C=C/C(=O)c2nc3ccccc3[nH]2)cc1	41.2	98.6	48.4	> 100	96	40.6	> 100	> 100	> 100	57	24.3	45.2	40.5	88.2		93.6	43.8	6.56	29.7	> 100
CCCCCCCCCCCCCCCCC(=O)NCC(=O)NCC(=O)NC(Cc1ccccc1)C(=O)Oc1ccc([N+](=O)[O-])cc1 (stereo not given)	> 100		34.2	44.9	35.8	34.5	> 100	> 100	56.6	48.8	38.9	38.6	> 100	57.7	46.6	50.4	> 100	51.3	> 100	46.8
